The target in one data set is ZHER2-HP15. The note with it: SPR; cited from earlier work. How it is done:
Our previously published preclinical therapy studies are based on PNA probes having 15 complementary nucleobases.[26],[27] Upon hybridization, these probes form an exceptionally stable duplex with a melting temperature (Tm) in solution of 86–88 °C. In a Biacore experiment, less than 5% of the hybridized secondary PNA detached during a 17 h long dissociation phase.[20] It is likely that shorter probe pairs than the original 15-mers provide enough binding affinity and specificity to achieve an efficient pretargeted radionuclide therapy in vivo.
In general terms: In SPR one partner is held on a chip, and binding of the other changes the refractive index at the surface.

Another data set concerns the target Z-HP15. The data set is described as follows: SPR off-rate screening (single-cycle kinetics), immobilized Z-HP15. In kind it is binding. The conditions noted are these: primary probe HP15 (immobilized Z-HP15), 25 °C, PBS-T pH 7.4, 120 nM HP16/HP20 or 362 nM HP21/HP19, dissociation 150 min, 1:1 model, duplicates. How it is done: (§1) The stability of new pretargeting probe combinations was assessed using SPR, and duplex melting temperatures were measured with UV–vis spectroscopy. In SPR, a high concentration of the secondary probe was injected over immobilized primary agents, and the dissociation of the hybridized complexes was monitored over 150 min (see Figures 3A, S22, and Table 2).
(§2) We utilized SPR on a Biacore T200 instrument (Cytiva) to examine how secondary PNA probes (6-mer HP19, 7-mer HP21, 8-mer HP20, and 9-mer HP16) bind to primary agents. These experiments were conducted using dextran-coated CM5 sensor chips and PBS-T buffer at pH 7.4. The ligands were immobilized through a standard EDC/NHS coupling method, and the chip surface was sealed with ethanolamine. A reference surface with no primary agent was also included.
(§3) For ranking the off-rate (kd) of the secondary probes, we employed single-cycle kinetics (SCK) at 25 °C with a flow rate of 50 μL/min. […] Secondary PNA probes were injected at various concentrations, and dissociation was monitored for 10,000 s. To regenerate the chip surface, we used two 30 s injections of 10 mM glycine-HCl, pH 1.5.
(§4) All SPR experiments were performed in duplicate, and data analysis was conducted using the Biacore T200 Evaluation software version 2.0 with a 1:1 binding model.
(§5) Figure S22: Representative SPR sensorgrams of the dissociation phase of HP16 (9-mer), HP20 (8-mer), HP21 (7-mer) and HP19 […]
(§6) After injection with the secondary probe
(§7) (120 nM of HP16 and HP20 or 362 nM of HP21 and HP19) the dissociation of the formed complex was followed for 150 minutes. All experiments were done in duplicates, and the data presented is double-referenced (reference channel and buffer injection are subtracted).
(§8) (1 picture or pasted object on this page, not shown here)

For another data set, the system named is HP9. The data set is described as follows: UV melting of PNA:PNA duplex with primary probe HP9. In kind it is physicochemical. The note with it: UV 260 nm, 20-95 °C at 1 °C/min, 5 μM each probe, 10 mM phosphate buffer, 10 mM KCl, pH 7.4. How it is done: The melting temperatures of secondary probes after duplex formation with primary probes were also measured by monitoring the absorbance at 260 nm as a function of temperature (see Figure S23). All probe pairs had melting temperatures well above 37 °C (body temperature) and ranged from 51 °C for the HP6:HP19 pair with 6 complementary bases to 82 °C for the previously studied HP15:HP18 pair with 15 complementary bases (see Figure 3B and Table 2). […] This secondary structure is typically adopted by antiparallel and L-amino acid-modified PNA–PNA duplexes at neutral pH.[49]
Figure S23: Normalized temperature melting profiles from 20–95°C for different primary and secondary probe pairs. UV melting curves at 260 nm. (A) HP15 (15-mer) toward secondary 15-, 12- and 9-mers. (B) HP12 (12-mer) toward secondary 12-, 9-, 8-, 7- and 6-mers. (C) HP9 (9-mer) toward secondary 9-, 8-, 7- and 6-mers. (D) HP6 (6-mer) toward secondary 6-mer.
Concentrations of duplexes in A–D are 5 μM in 10 mM […] with 10 mM KCl at pH 7.4.
(also on this page, place not known: Fraction melted Fraction meltedFraction melted Fraction melted) […]
Supplementary Material and methods […]
Biophysical characterization of PNA:PNA duplexes using CD Spectroscopy and […]
Circular dichroism (CD) and UV melts of PNA:PNA duplexes were measured on a CD spectrometer (Applied Photophysics, Leatherhead, UK) with Peltier temperature control and an external temperature probe. RP-HPLC purified and lyophilized PNA probes were dissolved in 10 mM phosphate buffer with 10 mM KCl at pH 7.4. Samples contained both primary and complementary secondary PNA probes at a final concentration of 5 µM for each probe. These samples were initially heated to 95°C for five minutes, allowed to cool to room temperature, and then transferred to a quartz cuvette with a 1.0 cm path length. A temperature probe was inserted into the solution through the cuvette's rubber cap. […]
from 20°C to 95°C with a 1°C/min temperature gradient. Simultaneously, the UV absorbance at 260 nm was recorded as a function of temperature. Fraction melted data was calculated […]
Fraction melted = 1 ― UVds― UVss , where UVss and UVds are the UV absorbances at 95°C and 20°C, respectively. The melting temperature (Tm) was determined as the maximum of the first derivative of the melting curve and was computed using the Global 3 analysis software (Applied Photophysics, […]
CD spectra in the range of 200–300 nm were recorded for all hybridized PNA:PNA pairs at 20°C before and after the UV melting experiments. All CD spectra were baseline subtracted and presented as an average of five scans.

The next data set deals with Z-HP12. The data set is described as follows: SPR off-rate screening (single-cycle kinetics), immobilized Z-HP12. In kind it is binding. The conditions noted are these: primary probe HP12 (immobilized Z-HP12), 25 °C, PBS-T pH 7.4, 120 nM HP16/HP20 or 362 nM HP21/HP19, dissociation 150 min, 1:1 model, duplicates. Here is the method: as §1, §2, §3, §4, §5, §6, §7, §8

Another data set deals with Z-HP9. The data set is described as follows: SPR off-rate screening (single-cycle kinetics), immobilized Z-HP9. The note with it: primary probe HP9 (immobilized Z-HP9), 25 °C, PBS-T pH 7.4, 120 nM HP16/HP20 or 362 nM HP21/HP19, dissociation 150 min, 1:1 model, duplicates. It counts as binding. How it is done: as §1, §2, §3, §4, §5, §6, §7, §8

Among the data in article PMC11091976, “Shorter Peptide Nucleic Acid Probes Improve Affibody-Mediated Peptide Nucleic Acid-Based Pretargeting” (ACS Pharmacology & Translational Science, 2024) are Kd, kd and Tm values, retold here.

The pKd is the negative decadic logarithm of the Kd, by convention in mol/L. In general, Tm refers to the temperature at which the thermal transition is half complete.

pKd: −log10 of the molar value.

Turning to “DOTA-AEEA-SS-aacaccagg-EEY-NH2 [HP16, 9-mer secondary PNA probe with DOTA]”, the pKd on ZHER2-HP15 is 9.55. For the same substance, the kd at ZHER2-HP15 is reported as 1.2 × 10^–5 s^–1; at Z-HP15, 1.2 × 10^–5 s^–1; at Z-HP12, 1.3 × 10^–5 s^–1; on Z-HP9, 2.5 × 10^–5 s^–1. In addition, in the data set with HP9, the Tm worked out at 65 °C.
